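1) Cells in 96-well plates. 2) Compound, 48 h, 5 concentrations. 3) Linear interpolation between surrounding doses. 4) Unreached endpoint = highest concentration. GI50: concentration for 50% inhibition of growth.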 Active and inactive are the calls of the source. No stated cut-off is given here; in the data, active = GI50 up to about 1.1 µM and inactive = higher.
Experiments:
Test in all cases: NCI-60 cell line screen, 48 h
SN12C = system: SN12C
786-0 = system: 786-0
NCI-H522 = system: NCI-H522
SW-620 = system: SW-620
OVCAR-4 = system: OVCAR-4
DMS-273 = system: DMS-273
OVCAR-3 = system: OVCAR-3
U-251 = system: U-251
CAKI-1 = system: CAKI-1
A549 = system: A549
HT-29 = system: HT-29
OVCAR-5 = system: OVCAR-5
UO-31 = system: UO-31
A498 = system: A498
RXF 631 = system: RXF 631
SNB-75 = system: SNB-75
SF-295 = system: SF-295
DLD-1 = system: DLD-1
SNB-78 = system: SNB-78
UACC-62 = system: UACC-62
MOLT-4 = system: MOLT-4
Malme-3M = system: Malme-3M
K562 = system: K562
M14 = system: M14
OVCAR-8 = system: OVCAR-8
KM12 = system: KM12
LOX IMVI = system: LOX IMVI
NCI-H23 = system: NCI-H23
LXFL 529 = system: LXFL 529
RPMI-8226 = system: RPMI-8226
COLO 205 = system: COLO 205
SK-OV-3 = system: SK-OV-3
SK-MEL-28 = system: SK-MEL-28
M19-MEL = system: M19-MEL
IGROV-1 = system: IGROV-1
SK-MEL-5 = system: SK-MEL-5
SF-539 = system: SF-539
HL-60 = system: HL-60
SK-MEL-2 = system: SK-MEL-2
HCC 2998 = system: HCC 2998
XF498 = system: XF498
KM-20L2 = system: KM-20L2
TK-10 = system: TK-10
CCRF-CEM = system: CCRF-CEM
SF-268 = system: SF-268
HCT-15 = system: HCT-15
HCT-116 = system: HCT-116
SNB-19 = system: SNB-19
HOP-62 = system: HOP-62
DMS-114 = system: DMS-114
UACC-257 = system: UACC-257
EKVX = system: EKVX
HOP-18 = system: HOP-18
NCI-H226 = system: NCI-H226
HOP-92 = system: HOP-92
RXF 393 = system: RXF 393
NCI-H460 = system: NCI-H460
ACHN = system: ACHN

Q: For `CCOc1ccccc1/N=N/c1ccc2oc(=O)c(C(=O)Nc3cccc(C)c3)cc2c1`, which GI50 (SN12C) is on record?
A: Its GI50 is 36.3 µM (inactive).

Q: What about the GI50 (786-0) of the same compound?
A: The GI50 was 34 µM (inactive).

Q: And the GI50 (NCI-H522)?
A: Its GI50 is 17.9 µM (inactive).

Q: And the GI50 (SW-620)?
A: The GI50 was 31.3 µM (inactive).

Q: What about the GI50 (OVCAR-4) of the same compound?
A: The GI50 was 28.6 µM (inactive).

Q: What about the GI50 (DMS-273) of the same compound?
A: Its GI50 is 34.3 µM (inactive).

Q: And the GI50 (OVCAR-3)?
A: Its GI50 is 20 µM (inactive).

Q: What about the GI50 (U-251) of the same compound?
A: Its GI50 is 25.6 µM (inactive).

Q: And the GI50 (CAKI-1)?
A: Its GI50 is 49.8 µM (inactive).

Q: And the GI50 (A549)?
A: Its GI50 is 42.3 µM (inactive).

Q: And the GI50 (HT-29)?
A: The GI50 was 36.2 µM (inactive).

Q: And the GI50 (OVCAR-5)?
A: The GI50 was > 100 µM (inactive).

Q: And the GI50 (UO-31)?
A: Its GI50 is 16.6 µM (inactive).

Q: What about the GI50 (A498) of the same compound?
A: The GI50 was 42.5 µM (inactive).

Q: And the GI50 (RXF 631)?
A: The GI50 was 34.5 µM (inactive).

Q: What about the GI50 (SNB-75) of the same compound?
A: Its GI50 is 37 µM (inactive).

Q: And the GI50 (SF-295)?
A: Its GI50 is 29.6 µM (inactive).

Q: And the GI50 (DLD-1)?
A: The GI50 was 24.2 µM (inactive).

Q: What about the GI50 (SNB-78) of the same compound?
A: The GI50 was 24.5 µM (inactive).

Q: What about the GI50 (UACC-62) of the same compound?
A: The GI50 was 26.2 µM (inactive).

Q: What about the GI50 (MOLT-4) of the same compound?
A: The GI50 was 19.9 µM (inactive).

Q: What about the GI50 (Malme-3M) of the same compound?
A: The GI50 was 29.9 µM (inactive).

Q: What about the GI50 (K562) of the same compound?
A: The GI50 was 23.3 µM (inactive).

Q: What about the GI50 (M14) of the same compound?
A: The GI50 was 18.7 µM (inactive).

Q: And the GI50 (OVCAR-8)?
A: Its GI50 is 24.7 µM (inactive).

Q: What about the GI50 (KM12) of the same compound?
A: The GI50 was 30 µM (inactive).

Q: What about the GI50 (LOX IMVI) of the same compound?
A: The GI50 was 14.7 µM (inactive).

Q: What about the GI50 (NCI-H23) of the same compound?
A: Its GI50 is 21.4 µM (inactive).

Q: What about the GI50 (LXFL 529) of the same compound?
A: The GI50 was 26.1 µM (inactive).

Q: What about the GI50 (RPMI-8226) of the same compound?
A: The GI50 was 24.5 µM (inactive).

Q: What about the GI50 (COLO 205) of the same compound?
A: Its GI50 is 26.7 µM (inactive).

Q: What about the GI50 (SK-OV-3) of the same compound?
A: The GI50 was 49.7 µM (inactive).

Q: What about the GI50 (SK-MEL-28) of the same compound?
A: The GI50 was 26 µM (inactive).

Q: And the GI50 (M19-MEL)?
A: Its GI50 is 27 µM (inactive).

Q: What about the GI50 (IGROV-1) of the same compound?
A: The GI50 was 39.5 µM (inactive).

Q: And the GI50 (SK-MEL-5)?
A: Its GI50 is 15.1 µM (inactive).

Q: What about the GI50 (SF-539) of the same compound?
A: The GI50 was 25.8 µM (inactive).

Q: What about the GI50 (HL-60) of the same compound?
A: Its GI50 is 10.2 µM (inactive).

Q: What about the GI50 (SK-MEL-2) of the same compound?
A: Its GI50 is 19.8 µM (inactive).

Q: What about the GI50 (HCC 2998) of the same compound?
A: The GI50 was 31.3 µM (inactive).

Q: What about the GI50 (XF498) of the same compound?
A: The GI50 was 34.6 µM (inactive).

Q: And the GI50 (KM-20L2)?
A: The GI50 was 43.5 µM (inactive).

Q: And the GI50 (TK-10)?
A: Its GI50 is 48.3 µM (inactive).

Q: What about the GI50 (CCRF-CEM) of the same compound?
A: Its GI50 is 18.7 µM (inactive).

Q: What about the GI50 (SF-268) of the same compound?
A: Its GI50 is 29.4 µM (inactive).

Q: What about the GI50 (HCT-15) of the same compound?
A: The GI50 was 25.4 µM.

Q: And the GI50 (HCT-116)?
A: The GI50 was 20.2 µM (inactive).

Q: And the GI50 (SNB-19)?
A: The GI50 was 20.3 µM (inactive).

Q: What about the GI50 (HOP-62) of the same compound?
A: The GI50 was 49.1 µM (inactive).

Q: What about the GI50 (DMS-114) of the same compound?
A: Its GI50 is 23.1 µM (inactive).

Q: What about the GI50 (UACC-257) of the same compound?
A: The GI50 was 26.1 µM (inactive).

Q: What about the GI50 (EKVX) of the same compound?
A: Its GI50 is 25.7 µM (inactive).

Q: What does the source list for `O=[N+]([O-])c1ccccc1/C=N/C12CC3CC(CC(C3)C1)C2`?
A: GI50 (SN12C): > 100 µM (inactive); GI50 (786-0): 52.4 µM (inactive); GI50 (NCI-H522): > 100 µM (inactive); GI50 (SW-620): 46.6 µM (inactive); GI50 (OVCAR-4): 87.7 µM (inactive); GI50 (DMS-273): 34.6 µM (inactive); GI50 (OVCAR-3): 32.3 µM (inactive); GI50 (U-251): > 100 µM (inactive); GI50 (CAKI-1): 49.5 µM (inactive); GI50 (A549): > 100 µM (inactive); GI50 (HT-29): 34.3 µM (inactive); GI50 (OVCAR-5): > 100 µM (inactive); GI50 (HOP-18): > 100 µM (inactive); GI50 (UO-31): > 100 µM (inactive); GI50 (A498): > 100 µM (inactive); GI50 (RXF 631): > 100 µM (inactive); GI50 (SNB-75): 65 µM (inactive); GI50 (SF-295): > 100 µM (inactive); GI50 (DLD-1): 36.4 µM (inactive); GI50 (SNB-78): 47.1 µM (inactive); GI50 (UACC-62): > 100 µM (inactive); GI50 (MOLT-4): 34 µM (inactive); GI50 (Malme-3M): 66.1 µM (inactive); GI50 (NCI-H226): > 100 µM (inactive); GI50 (K562): 29.8 µM (inactive); GI50 (M14): 56.1 µM (inactive); GI50 (HOP-92): 72.8 µM (inactive); GI50 (OVCAR-8): 75 µM (inactive); GI50 (KM12): 37.3 µM (inactive); GI50 (LOX IMVI): 47.4 µM (inactive); GI50 (NCI-H23): > 100 µM (inactive); GI50 (LXFL 529): 45.5 µM (inactive); GI50 (RPMI-8226): 34 µM (inactive); GI50 (COLO 205): > 100 µM (inactive); GI50 (SK-OV-3): > 100 µM (inactive); GI50 (SK-MEL-28): > 100 µM (inactive); GI50 (RXF 393): > 100 µM (inactive); GI50 (M19-MEL): > 100 µM (inactive); GI50 (IGROV-1): > 100 µM (inactive); GI50 (SK-MEL-5): 61.4 µM (inactive); GI50 (SF-539): 80.2 µM (inactive); GI50 (NCI-H460): > 100 µM (inactive); GI50 (HL-60): 21.4 µM (inactive); GI50 (SK-MEL-2): 65.8 µM (inactive); GI50 (ACHN): > 100 µM (inactive); GI50 (HCC 2998): 38.1 µM (inactive); GI50 (XF498): > 100 µM (inactive); GI50 (KM-20L2): 51.1 µM (inactive); GI50 (TK-10): > 100 µM (inactive); GI50 (CCRF-CEM): 30.9 µM (inactive); GI50 (SF-268): > 100 µM (inactive); GI50 (HCT-15): 42.1 µM; GI50 (HCT-116): 39.3 µM (inactive); GI50 (SNB-19): 49.9 µM (inactive); GI50 (HOP-62): 99.5 µM (inactive); GI50 (UACC-257): > 100 µM (inactive); GI50 (EKVX): > 100 µM (inactive)

— ChEMBL document CHEMBL1201862, “PubChem BioAssay data set” (2004)
